Structures are written as SMILES. Read-outs that look alike come from different tables or passages of the source.

The test system of one assay is HT-29 colon cancer cells. The assay can be described thus: MTT colorimetric in vitro growth inhibition assay. Format: cell-based, human. The conditions noted are these: read-out: IC50 (nM) HT-29. The source says: (§1) The histological types and origins of the eight human cancer cell lines that were used for the MTT colorimetric assay are detailed in the legend of Table 1. Two mouse cancer cell lines were also used, the CT26.WT colon cancer cell line (ATCC code CRL-2638) and the B16F10 melanoma cell line (ATCC code CRL-6475). Both cell lines were obtained from the American Type Culture Collection (ATCC, Manassas, VA). A control cell line (human NHDF fibroblasts) was obtained from PromoCell (code c-12300; Heidelberg, Germany). The cell lines detailed in Figure 2A are a generous gift from the National Cancer Institute (NCI, Bethesda, USA) to Steven Karlish’s lab.
(§2) The cancer cells were cultured in RPMI (Lonza, Verviers, Belgium) medium supplemented with 10% heat-inactivated fetal calf serum (Lonza). All culture media were supplemented with 4 mM glutamine, 100 μg/mL gentamicin, 200 U/mL penicillin and 200 μg/mL streptomycin (Lonza). The NHDF fibroblasts were cultured in Lonza medium cc3132 KT FGM-2 BulletKit.
(§3) The overall growth level of the human cancer cell lines was determined using a colorimetric MTT (3-(4,5-dimethylthiazol-2yl)-2,5-diphenyltetrazolium bromide, Sigma, Belgium) assay as detailed previously. Briefly, this test measures the number of metabolically active (thus living) cells that are able to transform the yellow MTT into the blue formazan dye via a mitochondrial reduction involving succinate dehydrogenase. The amount of formazan obtained at the end of the experiment (measured by spectrophotometry) is directly proportional to the number of living cells. The determination of the optical density in the control compared to the treated cells therefore enables quantitative measurements of the effects of compounds on the growth of normal as well as cancer cells in vitro.
(§4) Each experimental condition was performed in six replicates.

For assay [1], the system named is MCF-7 breast cancer cells. The assay can be described thus: MTT colorimetric in vitro growth inhibition assay. Format: cell-based, human. The following applies: read-out: IC50 (nM) MCF-7.
Text: as §1, §2, §3, §4

The test system of a further assay is Hs683 glioma cells. The assay can be described thus: MTT colorimetric in vitro growth inhibition assay. The following applies: read-out: IC50 (nM) Hs683. It counts as cell-based, human.
Text: as §1, §2, §3, §4

For assay [2], the system named is PC-3 prostate cancer cells. As to the kind of experiment: MTT colorimetric in vitro growth inhibition assay. The conditions noted are these: read-out: IC50 (nM) PC-3. Format: cell-based, human.
Text: as §1, §2, §3, §4

In a further assay the test system is A549 NSCLC cells. As to the kind of experiment: MTT colorimetric in vitro growth inhibition assay. It counts as cell-based, human. The conditions noted are these: read-out: IC50 (nM) A549.
Text: as §1, §2, §3, §4

The subject of another assay is SKMEL-28 melanoma cells. The assay can be described thus: MTT colorimetric in vitro growth inhibition assay. It counts as cell-based, human. The conditions noted are these: read-out: IC50 (nM) SKMEL-28.
Text: as §1, §2, §3, §4

Another assay deals with U373 glioma cells. As to the kind of experiment: MTT colorimetric in vitro growth inhibition assay. Format: cell-based, human. The conditions noted are these: read-out: IC50 (nM) U373.
Text: as §1, §2, §3, §4

In another assay the test system is T98G glioma cells. The assay can be described thus: MTT colorimetric in vitro growth inhibition assay. It counts as cell-based, human. The following applies: read-out: IC50 (nM) T98G.
Text: as §1, §2, §3, §4

The test system of assay [3] is human cancer cells (A549, U373, Hs683, T98G, MCF-7, SKMEL-28, PC-3, HT-29). The assay can be described thus: MTT growth inhibition, mean over the eight human cancer cell lines. Format: cell-based. The following applies: read-out: IC50 (nM) Mean ± SEM.
Text: as §1, §2, §3, §4

Assay [4] has as its target T1, purified human α1β1 Na+/K+-ATPase (Homo sapiens, UniProt P05023).
T1 construct: made in house; host or cells: Pichia pastoris strain SMD1165; detergent-soluble complex purified
The assay can be described thus: Inhibition of NaK activity of purified detergent-soluble complex (Pi release). Format: biochemical. The following applies: 37°C, 1 h, 1 mM ATP; read-out: Ki for inhibition of NaK activity of purified human α1β1. Here is the method:
The inhibition of NaK activity of the purified detergent-soluble α1β1, α2β1, and α3β1 complexes by cardiotonic steroids and an analysis of the inhibition data (Ki values) were also performed as previously described. The inhibitors were added to the recombinant enzyme (0.08–0.2 μg of protein) in 400 μl of reaction medium containing 130 mM NaCl, 5 mM KCl, 3 mM MgCl2, 25 mM histidine, pH 7.4, 1 mM EGTA, 0.01 mg/ml SOPS, 0.001 mg/ml cholesterol, and 0.005 mg/ml C12 E8 in 48-well plates. The reaction (37°C for 1 h) was started by the addition of 1mM ATP. Pi release was measured with a malachite green dye to detect the phosphor-molybdate (Pi Color Lock, Innova Biosciences). The percent inhibition V /V0 was calculated for each cardiac glycoside concentration, and Ki values were obtained by fitting the data to the function V /V0 = Ki /([CG] + Ki ) (using Kaleidagraph). V0 and V represent the control rate and rate of NaK-ATPase activity at particular concentrations of cardiac glycosides, [CG], respectively.
(§5) Average KD or Ki values ± SEM for each isoform were calculated. Statistical significance was calculated by the unpaired Students t-test. P values <0.05 were considered significant.

The test system of another assay is NHDF fibroblasts. As to the kind of experiment: MTT growth inhibition in non-cancerous control cell line. Format: cell-based. The conditions noted are these: NHDF, normal human fibroblasts, read-out: in vitro growth inhibitory effects (IC50) in NHDF fibroblasts.
Text: as §1, §2, §3, §4

The next assay deals with T2, human α2β1 NaK complex (Homo sapiens, UniProt P50993).
T2 construct: made in house; host or cells: Pichia pastoris strain SMD1165 (membranes)
The assay can be described thus: 3H-ouabain competitive displacement on P. pastoris membranes. It counts as binding. The protocol:
(§6) K0.5 was calculated using a one site inhibition model: B/BCG=0 = K0.5/([CG] + K0.5). […] Binding of each cardiac glycoside was estimated in 3 separate experiments.
as §5

In the next assay the target is T3, human α1β1 NaK complex (Homo sapiens, UniProt P05023).
T3 construct: made in house; host or cells: Pichia pastoris strain SMD1165 (membranes)
Described as above. The conditions noted are these: 3H-ouabain displacement, three independent experiments; read-out: Affinity (nM) α-1 (KD ± SEM). Format: binding. The protocol: as §6, §5

The next assay has as its target T4, human α3β1 NaK complex (Homo sapiens, UniProt P13637).
T4 construct: made in house; host or cells: Pichia pastoris strain SMD1165 (membranes)
Described as above. It counts as binding. Here is the method:
as §6, §5

[5] abbreviates: Homo sapiens, HT-29, 72 h, three days of culture, * three independent experiments, ** one experiment, six replicates.
The mark [6] stands for this setting: Homo sapiens, MCF7, 72 h, three days of culture, * three independent experiments, ** one experiment, six replicates.
Setting [7] is: Homo sapiens, Hs 683, 72 h, three days of culture, * three independent experiments, ** one experiment, six replicates.
The mark [8] stands for this setting: Homo sapiens, 72 h, three days of culture, * three independent experiments, ** one experiment, six replicates.
Where [9] appears, read: Homo sapiens, A549, 72 h, three days of culture, * three independent experiments, ** one experiment, six replicates.
Where [10] appears, read: Homo sapiens, SK-MEL-28, 72 h, three days of culture, * three independent experiments, ** one experiment, six replicates.
Where [11] appears, read: Homo sapiens, U373 MG, 72 h, three days of culture, * three independent experiments, ** one experiment, six replicates.
Where [12] appears, read: Homo sapiens, T98G, 72 h, three days of culture, * three independent experiments, ** one experiment, six replicates.
[13] abbreviates: 72 h, mean over eight human cancer cell lines, three days of culture.
The mark [14] stands for this setting: three days of culture, * three independent experiments, ** one experiment, six replicates.

What is called IC50 is the concentration that inhibits the measured activity by half. With `C[C@]12CC[C@H](O)C[C@H]1CC[C@@H]1[C@@H]2C[C@@H](O)[C@]2(C)[C@@H](C3=CC(=O)OC3)CC[C@]12O` [Digoxigenin, digoxigenin], the IC50 in the assay on HT-29 colon cancer cells (setting [5]) amounted to 4460 nM; in [1] (setting [6]), 5320 nM; in the assay with Hs683 glioma cells (setting [7]), 794 ± 22 nM; in assay [2] (setting [8]), 3880 nM; in the assay on A549 NSCLC cells (setting [9]), 395 ± 34 nM; in the assay on SKMEL-28 melanoma cells (setting [10]), 4000 nM. The concentration for half-maximal inhibition (IC50) in the assay with U373 glioma cells (setting [11]) stood at 3190 nM; in the assay with T98G glioma cells (setting [12]), 1170 nM; in assay [3] (setting [13]) it was 2900 nM.

The Ki is the dissociation constant of the complex between target and ligand, obtained from inhibition or displacement. Consider `C[C@]12C[C@@H](O)[C@H]3[C@@H](CC[C@]4(O)C[C@@H](O)C[C@@H](O)[C@]34CO)[C@@]1(O)CC[C@@H]2C1=CC(=O)OC1` [Ouabagenin, ouabagenin], for which the IC50 in the assay on HT-29 colon cancer cells (setting [14]) turned out to be 3480 nM; in [1] (setting [14]), 4010 nM; in the assay on Hs683 glioma cells (setting [14]) it was 1900 nM; in assay [2] (setting [14]), 2710 nM; in the assay with A549 NSCLC cells (setting [14]), 866 ± 25 nM; in the assay on SKMEL-28 melanoma cells (setting [14]) it was 2560 nM. The IC50 is 5280 nM in the assay with U373 glioma cells (setting [14]); 3600 nM in the assay on T98G glioma cells (setting [14]); 3050 nM in assay [3] (mean over eight human cancer cell lines, three days of culture). For the same molecule, the inhibitory constant (Ki) in [4] worked out at 721 ± 70 nM.

`C[C@]12CC[C@H](O)C[C@H]1CC[C@@H]1[C@@H]2CC[C@]2(C)[C@@H](C3=CC(=O)OC3)CC[C@]12O` [Digitoxigenin]: the IC50 was found to be 230 nM with HT-29 colon cancer cells (Homo sapiens, HT-29, 72 h); 2130 nM in assay [1] (Homo sapiens, MCF7, 72 h); 79 nM in the assay with Hs683 glioma cells (Homo sapiens, Hs 683, 72 h); 298 nM in assay [2] (Homo sapiens, 72 h); 92 nM with A549 NSCLC cells (Homo sapiens, A549, 72 h); 2500 nM in the assay with SKMEL-28 melanoma cells (Homo sapiens, SK-MEL-28, 72 h). The half-inhibitory concentration (IC50) came to 369 nM in the assay on U373 glioma cells (Homo sapiens, U373 MG, 72 h); 166 nM in the assay with T98G glioma cells (Homo sapiens, T98G, 72 h); 733 ± 349 nM in assay [3] (Homo sapiens, 72 h).

Broadly, the Kd is the constant that tells how readily two partners part at equilibrium. `C[C@]12CC[C@H](O)C[C@H]1CC[C@@H]1[C@@H]2[C@H](O)C[C@]2(C)[C@@H](c3ccc(=O)oc3)CC[C@]12O` [Gamabufotalin, gamabufotalin]: the half-inhibitory concentration (IC50) with NHDF fibroblasts is over 10000 nM; in the assay with HT-29 colon cancer cells (Homo sapiens, HT-29, 72 h), 37 ± 3 nM; in [1] (Homo sapiens, MCF7, 72 h), 40 ± 7 nM; in the assay on Hs683 glioma cells (Homo sapiens, Hs 683, 72 h), 14 ± 3 nM; in assay [2] (Homo sapiens, 72 h), 22 ± 4 nM; in the assay on A549 NSCLC cells (Homo sapiens, A549, 72 h) it was 7 ± 1 nM. The 50% inhibitory concentration (IC50) came out at 22 ± 1 nM with SKMEL-28 melanoma cells (Homo sapiens, SK-MEL-28, 72 h); 34 ± 1 nM in the assay on U373 glioma cells (Homo sapiens, U373 MG, 72 h); 31 ± 8 nM in the assay with T98G glioma cells (Homo sapiens, T98G, 72 h); 26 ± 4 nM in assay [3] (Homo sapiens, 72 h). Also, the Kd on human α2β1 NaK complex (3H-ouabain displacement, three independent experiments, read-out: Affinity (nM) α-2 (KD ± SEM)) came out at 247 ± 30 nM; at human α1β1 NaK complex, 243 ± 48 nM; at human α3β1 NaK complex (3H-ouabain displacement, three independent experiments, read-out: Affinity (nM) α-3 (KD ± SEM)) it was 236 ± 14 nM. Moreover, the “Selectivity α-1 / α-2” value at human α2β1 NaK complex (ratio of KD α-1 to KD α-2) was determined as 1.0. Also, the “Selectivity α-1 / α-3” value on human α3β1 NaK complex (ratio of KD α-1 to KD α-3) was determined as 1.0.

For the molecule `C[C@H]1O[C@@H](O[C@H]2[C@@H](O)C[C@H](O[C@H]3[C@@H](O)C[C@H](O[C@H]4CC[C@@]5(C)[C@H](CC[C@@H]6[C@@H]5CC[C@]5(C)[C@@H](C7=CC(=O)OC7)CC[C@]65O)C4)O[C@@H]3C)O[C@@H]2C)C[C@H](O)[C@@H]1O` [Digitoxin, digitoxin], the IC50 in the assay with HT-29 colon cancer cells (setting [5]) was 198 nM; in [1] (setting [6]), 187 nM; in the assay with Hs683 glioma cells (setting [7]), 15 nM; in assay [2] (setting [8]) it was 37 nM; in the assay with A549 NSCLC cells (setting [9]), 11 nM; with SKMEL-28 melanoma cells (setting [10]), 59 nM. Also, the values for the half-inhibitory concentration (IC50) (with U373 glioma cells (setting [11]); in the assay with T98G glioma cells (setting [12]); in assay [3] (setting [13])) were 61 nM, 32 nM and 75 ± 26 nM, respectively.

(Values after article PMC3722118, “Hellebrin and its aglycone form hellebrigenin display similar in vitro growth inhibitory effects in cancer cells and binding profiles to the alpha subunits of the Na^+/K^+-ATPase” (Molecular Cancer, 2013).)
